Measured values reported in article PMC5635026, “Homo-PROTACs: bivalent small-molecule dimerizers of the VHL E3 ubiquitin ligase to induce self-degradation” (Nature Communications, 2017).

Key:
Hdy-HIF-1α = test: Immunoblot of HIF-1α / hydroxylated HIF-1α levels in HeLa cells; assay type: cell-based, Human; settings: HeLa; for stabilization of Hdy-HIF-1α: 100 µM; for protein levels of hydroxylated HIF-1α (Hdy-HIF-1α): 1 µM, 10 h
Method: (§1) Cell culture. Human cell lines HeLa, U2OS and HEK 293, purchased from ATCC, were propagated in DMEM supplemented with 10% fetal bovine serum (FBS), L- glutamine, 100 μg ml^−1 of penicillin/streptomycin at 37 °C and 5% CO2. Cells were maintained for no more than 30 passages. All cell lines were routinely tested for mycoplasma contamination using MycoAlert kit from Lonza. For compound treatment experiments, cells were transferred in six-well plates with either 3 × 10^5 or 5 × 10^5 cells per well in 2 ml of media. At 80% confluence, cells were treated with compounds at the desired concentration, reaching final DMSO concentration of 0.1% v/v. Cells were incubated at 37 °C and 5% CO2 for the desired time before harvesting.
(§2) Immunoblotting. Cells were lysed in lysis buffer (20 mM Tris pH 8, 150 mM NaCl, 1% Triton × 100) and a protease inhibitor cocktail (Roche) per 10 ml buffer. For protein extracts, the dishes were placed on ice. The media was aspirated and the tissue layer washed twice with ice-cold phosphate buffer saline (PBS). Lysis buffer (120 μl) was added and the cells detached from the surface with a cell scraper. After removal of the insoluble fraction by centrifugation, the protein concentration of the supernatant was determined by Pierce™ Coomassie (Bradford) Protein Assay Kit. Protein extracts were fractionated by SDS-PAGE on 4–12% Tris-Acetate NuPage® Novex® (Life Technologies) polyacrylamide gels and transferred to a nitrocellulose membrane using wet transfer. The membrane was then blocked with 5 % w/v Bovine serum albumin (BSA) in Tris-buffered saline (TBS) with 0.1% w/v Tween-20. For detecting proteins the following primary antibodies in the given concentrations were used: anti-β-Actin (Cell Signaling Technology, 4970S, 13E5) 1:2000, anti-VHL (Cell Signaling Technology, #68547) 1:1000, anti-Hif-1α (BD Biosciences, 610959, clone 54) 1:1,000, anti-hydroxy-HIF-1α (Hyp564) (Cell Signaling Techonology; #3434) 1:1,000, anti-PHD2 (Bethyl Laboratories; A300-322A) 1:1,000, anti-PHD3 (Bethyl Laboratories; A300-327A) 1:1000, anti-CRBN (Proteintech; 11435-1-AP) 1:1,000. Following incubation with a horseradish peroxidase-conjugated secondary antibody (Cell Signaling Technology), the signal was developed using enhanced chemiluminescence (ECL) Western Blotting Detection Kit (Amersham) on Amersham Hyperfilm ECL film (Amersham). Band quantification was performed using ImageJ software and reported as relative amount as ratio of the each protein band relative to the lane’s loading control. The values obtained were then normalized to 0.1% DMSO vehicle control. See Supplementary Fig. 12 for full-scanned images of western-blots shown in the main text figures.

VCB = target: T1, VCB (Homo sapiens, UniProt P40337); test: AlphaLISA proximity assay of ternary complex formation; assay type: binding; settings: biotinylated VCB 20 nM, His6-VCB 20 nM, compound 0.5–200 nM
T1 construct: made in house
T1 sequence (P40337 54-213): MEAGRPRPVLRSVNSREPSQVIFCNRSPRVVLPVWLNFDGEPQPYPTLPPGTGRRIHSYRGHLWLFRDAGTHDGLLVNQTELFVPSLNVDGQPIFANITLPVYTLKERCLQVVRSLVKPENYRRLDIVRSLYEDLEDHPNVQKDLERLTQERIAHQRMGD
T1 sequence (Q15369 17-112 partner limits assumed): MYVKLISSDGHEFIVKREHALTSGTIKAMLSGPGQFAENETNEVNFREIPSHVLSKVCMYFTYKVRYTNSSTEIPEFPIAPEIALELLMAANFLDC
T1 sequence (Q15370 1-104 partner limits assumed): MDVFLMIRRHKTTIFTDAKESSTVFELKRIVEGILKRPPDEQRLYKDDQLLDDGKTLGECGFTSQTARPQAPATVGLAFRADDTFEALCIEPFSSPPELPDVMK
Method: Biotinylation of VCB. The VCB complex was mixed with EZ-link NHS-PEG4-biotin (Thermo Scientific) in a 1:1 molar ratio and incubated at room temperature for 1 h. The reaction was quenched using 1 M Tris-HCl, pH 7.5, and unreacted NHS-biotin was removed with a PD-10 MiniTrap desalting column (GE Healthcare) equilibrated with 20 mM HEPES, pH 7.5, 150 mM NaCl and 1 mM DTT.
AlphaLISA assay. All assays were performed at room temperature in 384-well plates with a final assay volume of 25 µL per well; plates were sealed with transparent film between addition of reagents. All reagents were prepared as 5× stocks diluted in 50 mM HEPES, pH 7.5, 100 mM NaCl, 0.1% (w/v) bovine serum albumin and 0.02% (w/v) 3-[(cholamidopropyl)dimethylammonio]-1-propanesulfonate (CHAPS). Biotinylated VCB (20 nM final) and His6-VCB (20 nM final) were incubated with a range of Homo-PROTAC concentrations (0.5–200 nM; three-in-five serial dilution) for 1 h. Anti-His acceptor beads (PerkinElmer, 10 µg ml^−1 final) were added and plates were incubated for another hour. Streptavidin-coated donor beads (PerkinElmer, 10 µg ml^−1 final) were added and plates were incubated for a final 1 h. Plates were read on a PHERAstar FS (BMG Labtech) using an optic module with an excitation wavelength of 680 nm and emission wavelength of 615 nm. Intensity values were plotted against PROTAC concentration on a log10 scale.

pVHL30 = pVHL30 (Homo sapiens, UniProt P40337); test: Immunoblot of pVHL30 protein level in HeLa cells after compound treatment; assay type: cell-based; design: endogenous in cells; host or cells: HeLa; settings: for remaining activity at 1 µM / depletion of target protein (pVHL30 / VHL): 10 h; for remaining activity at 1 µM: DMSO = 100, Fig. 4a, read-out: pVHL30 band quantification normalized to 0.1% DMSO
pVHL30, sequence (P40337 whole entry): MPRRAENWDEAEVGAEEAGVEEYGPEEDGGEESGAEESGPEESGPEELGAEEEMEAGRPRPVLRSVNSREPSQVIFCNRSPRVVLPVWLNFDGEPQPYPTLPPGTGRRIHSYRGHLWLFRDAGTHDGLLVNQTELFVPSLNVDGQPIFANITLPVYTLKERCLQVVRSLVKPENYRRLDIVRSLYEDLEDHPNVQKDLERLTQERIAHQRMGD
Method: as §1, §2

SMILES	stabilization of Hdy-HIF-1α (Hdy-HIF-1α)	ternary complex formation, AlphaLISA intensity (VCB)	remaining activity at 1 µM (pVHL30; 1 µM)	degradation of pVHL in time course (pVHL30; 1 µM, even in the longer time points)	protein levels of hydroxylated HIF-1α (Hdy-HIF-1α) (Hdy-HIF-1α)	depletion of target protein (pVHL30 / VHL) (pVHL30; 1 µM)	increase in cellular activity compared to parent inhibitor VH032 (pVHL30)	pVHL30 levels detected (pVHL30; 1 µM, after 24–36 h treatment)	decrease of pVHL30 level (pVHL30; 1 µM, after 2 h)	decrease of pVHL30 level (pVHL30; 1 µM, after 8 h)	DC99 (complete depletion of pVHL30) (pVHL30; 4 h)	effective degrading concentrations lower than inhibitory concentrations of VH032 (pVHL30; compared to VH032)
Cc1ncsc1-c1ccc(CNC(=O)[C@@H]2C[C@@H](O)CN2C(=O)[C@@H](NC(=O)COCCOCCOCCOCC(=O)N[C@H](C(=O)N2C[C@H](O)C[C@H]2C(=O)NCc2ccc(-c3scnc3C)cc2)C(C)(C)C)C(C)(C)C)cc1 [CM09, N ^1 ,N ^14-bis((S)-1-((2S,4R)-4-hydroxy-2-((4-(4-methylthiazol-5-yl)benzyl)carbamoyl)pyrrolidin-1-yl)-3,3-dimethyl-1-oxobutan-2-yl)-3,6,9,12-tetraoxatetradecanediamide]	comparable with the effect obtained with VH032 alone	negligible levels of complex formation	19%	Incomplete degradation	–	–	–	–	–	–	–	–
Cc1ncsc1-c1ccc(CNC(=O)[C@@H]2C[C@@H](O)CN2C(=O)[C@@H](NC(=O)COCCOCCOCCOCCOCC(=O)N[C@H](C(=O)N2C[C@H](O)C[C@H]2C(=O)NCc2ccc(-c3scnc3C)cc2)C(C)(C)C)C(C)(C)C)cc1 [CM10, N ^1 ,N ^17-bis((S)-1-((2S,4R)-4-hydroxy-2-((4-(4-methylthiazol-5-yl)benzyl)carbamoyl)pyrrolidin-1-yl)-3,3-dimethyl-1-oxobutan-2-yl)-3,6,9,12,15-pentaoxaheptadecanediamide]	comparable with the effect obtained with VH032 alone	negligible levels of complex formation	3%	–	detectable albeit low increase	total knockdown	–	–	–	–	–	–
Cc1ncsc1-c1ccc(CNC(=O)[C@@H]2C[C@@H](O)CN2C(=O)[C@@H](NC(=O)COCCOCCOCCOCCOCCOCC(=O)N[C@H](C(=O)N2C[C@H](O)C[C@H]2C(=O)NCc2ccc(-c3scnc3C)cc2)C(C)(C)C)C(C)(C)C)cc1 [CM11, N ^1 ,N ^20-bis((S)-1-((2S,4R)-4-hydroxy-2-((4-(4-methylthiazol-5-yl)benzyl)carbamoyl)pyrrolidin-1-yl)-3,3-dimethyl-1-oxobutan-2-yl)-3,6,9,12,15,18-hexaoxaicosanediamide]	comparable with the effect obtained with VH032 alone	highest intensity signal	1%	–	detectable albeit low increase	total knockdown	> 1000 fold	up to 11%	> 70%	essentially to completion	10 nM	> 3 orders of magnitude
